Where two headings read alike, the source gives them in different places.
Test system: Triple negative breast cancer cell line CAL51
Assay: Cell Titer Glo proliferation assay, CAL51
Format: cell-based
Conditions: Homo sapiens, CAL-51, CAL51 cell proliferation, read-out: Act. Level
Method: Cell Titer Glo Proliferation Assay.
Triple negative breast cancer cell line CAL51 was purchased from DSMZ. […] Allcell lines were maintained in growth media consisting of 90% high glucose Dulbecco's Modified Eagle Medium or RPMI1640 (Invitrogen), 10% fetal bovine serum (Hyclone), and 2 mM L-glutamine (Invitrogen). […] After overnight culture, compound stock (30 mM) was diluted serially in DMSO, further diluted in growth media, and was added to each well as a 10× concentrated solution in a volume of 11 μL, mixed, and allowed to incubate with cells. The compound vehicle (DMSO) was maintained at a final concentration of 0.2% in all wells. After 72 h, 100 μL of Cell Titer Glo solution (Promega) was added to each well of the 96-well plate. The plate was placed on a shaker for 2 minutes. After 10 minutes incubation, the luminescence signal was detected with Envision microplate reader (Perkin Elmer).

SMILES	IC50 (activity level class of IC50) [nM]	IC50 (Cell Titer Glo) [nM]
CNC(=O)c1ccc(Nc2nc(OC3CCC(O)CC3)c3c(-c4ccc5nc(C)oc5c4)c[nH]c3n2)c(OC)c1 (stereo not shown) [Example 137, 4-(4-((1r,4r)-4-hydroxycyclohexyloxy)-5-(2-methylbenzo[d]oxazol-6-yl)-7H-pyrrolo[2,3-d]pyrimidin-2-ylamino)-3-methoxy-N-methylbenzamide]	< 100	
CNC(=O)c1ccc(Nc2nc(OC3CCC(C)(O)CC3)c3c(-c4ccc5nc(C)oc5c4)c[nH]c3n2)c(OC)c1 (stereo not shown) [Example 205, 4-(4-((1r,4r)-4-hydroxy-4-methylcyclohexyloxy)-5-(2-methylbenzo[d]oxazol-6-yl)-7H-pyrrolo[2,3-d]pyrimidin-2-ylamino)-3-methoxy-N-methylbenzamide]		< 100
CNC(=O)c1ccc(Nc2nc(OC3CC3)c3c(-c4ccn(C)n4)c[nH]c3n2)c(OC)c1 [Example 218, 4-(4-cyclopropoxy-5-(1-methyl-1H-pyrazol-3-yl)-7H-pyrrolo[2,3-d]pyrimidin-2-ylamino)-3-methoxy-N-methylbenzamide]		1000 to 10000
CNC(=O)c1ccc(Nc2nc(OC3CCCC3)c3c(-c4ccc(C(=O)OC)cc4)c[nH]c3n2)c(OC)c1 [Example 318, methyl 4-(4-(cyclopentyloxy)-2-(2-methoxy-4-(methylcarbamoyl)phenylamino)-7H-pyrrolo[2,3-d]pyrimidin-5-yl)benzoate]		1000 to 10000
CNC(=O)c1ccc(Nc2nc(OC3CCCC3)c3c(-c4ccc(F)cc4C)c[nH]c3n2)c(OC)c1 [Example 319, 4-(4-(cyclopentyloxy)-5-(4-fluoro-2-methylphenyl)-7H-pyrrolo[2,3-d]pyrimidin-2-ylamino)-3-methoxy-N-methylbenzamide]		1000 to 10000
CNC(=O)c1ccc(Nc2nc(OC3CCCC3)c3c(-c4ccc(OC)cc4OC)c[nH]c3n2)c(OC)c1 [Example 320, 4-(4-(cyclopentyloxy)-5-(2,4-dimethoxyphenyl)-7H-pyrrolo[2,3-d]pyrimidin-2-ylamino)-3-methoxy-N-methylbenzamide]		1000 to 10000
CNC(=O)c1ccc(Nc2nc(OC3CCCC3)c3c(-c4c(C)noc4C)c[nH]c3n2)c(OC)c1 [Example 321, 4-(4-(cyclopentyloxy)-5-(3,5-dimethylisoxazol-4-yl)-7H-pyrrolo[2,3-d]pyrimidin-2-ylamino)-3-methoxy-N-methylbenzamide]		1000 to 10000
CNC(=O)c1ccc(Nc2nc(OC3CCCC3)c3c(-c4cccc(N(C)C)c4)c[nH]c3n2)c(OC)c1 [Example 322, 4-(4-(cyclopentyloxy)-5-(3-(dimethylamino)phenyl)-7H-pyrrolo[2,3-d]pyrimidin-2-ylamino)-3-methoxy-N-methylbenzamide]		400 to 1000
CNC(=O)c1ccc(Nc2nc(OC3CCCC3)c3c(-c4cccc(O)c4)c[nH]c3n2)c(OC)c1 [Example 323, 4-(4-(cyclopentyloxy)-5-(3-hydroxyphenyl)-7H-pyrrolo[2,3-d]pyrimidin-2-ylamino)-3-methoxy-N-methylbenzamide]		< 100
CNC(=O)c1ccc(Nc2nc(OC3CCCC3)c3c(-c4cccc(C#N)c4)c[nH]c3n2)c(OC)c1 [Example 324, 4-(5-(3-cyanophenyl)-4-(cyclopentyloxy)-7H-pyrrolo[2,3-d]pyrimidin-2-ylamino)-3-methoxy-N-methylbenzamide]		1000 to 10000
CNC(=O)c1ccc(Nc2nc(OC3CCOCC3)c3c(-c4cncc(OC)c4)c[nH]c3n2)c(OC)c1 [Example 325, 3-methoxy-4-(5-(5-methoxypyridin-3-yl)-4-(tetrahydro-2H-pyran-4-yloxy)-7H-pyrrolo[2,3-d]pyrimidin-2-ylamino)-N-methylbenzamide]		100 to 400
CNC(=O)c1ccc(Nc2nc(OCCOC)c3c(-c4cnn(C)c4)c[nH]c3n2)c(OC)c1 [Example 326, 3-methoxy-4-(4-(2-methoxyethoxy)-5-(1-methyl-1H-pyrazol-4-yl)-7H-pyrrolo[2,3-d]pyrimidin-2-ylamino)-N-methylbenzamide]		< 100
COc1cc(C(=O)NCCO)ccc1Nc1nc(OC2CCOCC2)c2c(-c3cnn(C)c3)c[nH]c2n1 [Example 327, N-(2-hydroxyethyl)-3-methoxy-4-(5-(1-methyl-1H-pyrazol-4-yl)-4-(tetrahydro-2H-pyran-4-yloxy)-7H-pyrrolo[2,3-d]pyrimidin-2-ylamino)benzamide]		100 to 400
CNC(=O)c1ccc(Nc2nc(O[C@H]3CCOC3)c3c(-c4cnn(C)c4)c[nH]c3n2)c(OC)c1 [Example 328, (S)-3-methoxy-N-methyl-4-(5-(1-methyl-1H-pyrazol-4-yl)-4-(tetrahydrofuran-3-yloxy)-7H-pyrrolo[2,3-d]pyrimidin-2-ylamino)benzamide]		< 100
CNC(=O)c1ccc(Nc2nc(OC3CCCC3)c3c(-c4cc(F)c5nc(C)oc5c4)c[nH]c3n2)c(OC)c1 [Example 330, 4-(4-(cyclopentyloxy)-5-(4-fluoro-2-methylbenzo[d]oxazol-6-yl)-7H-pyrrolo[2,3-d]pyrimidin-2-ylamino)-3-methoxy-N-methylbenzamide]		100 to 400
CNC(=O)c1ccc(-c2c[nH]c3nc(Nc4ccc(C(=O)NCCO)cc4OC)nc(OC4CCC4)c23)cc1 [Example 331, 4-(4-cyclobutoxy-5-(4-(methylcarbamoyl)phenyl)-7H-pyrrolo[2,3-d]pyrimidin-2-ylamino)-N-(2-hydroxyethyl)-3-methoxybenzamide]		100 to 400
CNC(=O)c1ccc(-c2c[nH]c3nc(Nc4ccc(C(=O)NC5COC5)cc4C)nc(OC4CCC4)c23)cc1 [Example 332, 4-(4-cyclobutoxy-5-(4-(methylcarbamoyl)phenyl)-7H-pyrrolo[2,3-d]pyrimidin-2-ylamino)-3-methyl-N-(oxetan-3-yl)benzamide]		< 100
CNC(=O)c1ccc(-c2c[nH]c3nc(Nc4ccc(C(=O)NC5COC5)cc4Cl)nc(OC4CCC4)c23)cc1 [Example 333, 3-chloro-4-(4-cyclobutoxy-5-(4-(methylcarbamoyl)phenyl)-7H-pyrrolo[2,3-d]pyrimidin-2-ylamino)-N-(oxetan-3-yl)benzamide]		< 100
COc1cc(C(=O)N2CC2C)ccc1Nc1nc(OC2CCCC2)c2c(-c3ccc4nc(C)oc4c3)c[nH]c2n1 [Example 335, (R)-(4-(4-(cyclopentyloxy)-5-(2-methylbenzo[d]oxazol-6-yl)-7H-pyrrolo[2,3-d]pyrimidin-2-ylamino)-3-methoxyphenyl)(2-methylaziridin-1-yl)methanone]		400 to 1000
CNC(=O)c1ccc(-c2c[nH]c3nc(Nc4ccc(C(=O)N5CC5)cc4OC)nc(O[C@H]4CC[C@@](C)(O)CC4)c23)cc1 [Example 336, 4-(2-(4-(aziridine-1-carbonyl)-2-methoxyphenylamino)-4-((1s,4s)-4-hydroxy-4-methylcyclohexyloxy)-7H-pyrrolo[2,3-d]pyrimidin-5-yl)-N-methylbenzamide]		< 100
CNC(=O)c1ccc(-c2c[nH]c3nc(Nc4ccc(C(=O)NC5COC5)cc4OC)nc(OC4CCC(C)(O)CC4)c23)cc1 (stereo not shown) [Example 337, 4-(4-((1s,4s)-4-hydroxy-4-methylcyclohexyloxy)-5-(4-(methylcarbamoyl)phenyl)-7H-pyrrolo[2,3-d]pyrimidin-2-ylamino)-3-methoxy-N-(oxetan-3-yl)benzamide]		< 100
COc1cc(C(=O)N2CC2)ccc1Nc1nc(OC)c2c(-c3ccncc3)c[nH]c2n1 [Example 338, aziridin-1-yl(3-methoxy-4-(4-methoxy-5-(pyridin-4-yl)-7H-pyrrolo[2,3-d]pyrimidin-2-ylamino)phenyl)methanone]		400 to 1000

— patent US9795607B2, “Substituted pyrrolopyrimidine compounds, compositions thereof, and methods of treatment therewith” (Signal Pharmaceutical, LLC, priority 2013, dated 2017)
